Reference: patent US11655235B2, “Pyrrolidine and piperidine compounds” (YUHAN CORPORATION, priority 2019, dated 2023)

Experiments:
Type in all cases: biochemical
[1] = target: T1, recombinant human DPP8 (Homo sapiens, UniProt Q6V1X1); test: DPP8 inhibition, fluorogenic substrate Z-Ala-Pro-AMC; details: recombinant human DPP8
T1 construct: purchased PBS Bioscience
Outline: (§1)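 Enzyme per reaction: 50 ng DPP9, 20 ng DPP8, 10 ng each DPP7 and PREP. Compounds were serially diluted (8 points, up to 0.5% DMSO) and incubated at 25 °C.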

[2] = target: T2, Recombinant human FAP (Homo sapiens, UniProt Q12884); test: FAP inhibition, fluorogenic substrate Z-Gly-Pro-AMC; details: recombinant human FAP, substrate Z-Gly-Pro-AMC
T2 construct: purchased R&D systems
T2 sequence (Q12884 1-760): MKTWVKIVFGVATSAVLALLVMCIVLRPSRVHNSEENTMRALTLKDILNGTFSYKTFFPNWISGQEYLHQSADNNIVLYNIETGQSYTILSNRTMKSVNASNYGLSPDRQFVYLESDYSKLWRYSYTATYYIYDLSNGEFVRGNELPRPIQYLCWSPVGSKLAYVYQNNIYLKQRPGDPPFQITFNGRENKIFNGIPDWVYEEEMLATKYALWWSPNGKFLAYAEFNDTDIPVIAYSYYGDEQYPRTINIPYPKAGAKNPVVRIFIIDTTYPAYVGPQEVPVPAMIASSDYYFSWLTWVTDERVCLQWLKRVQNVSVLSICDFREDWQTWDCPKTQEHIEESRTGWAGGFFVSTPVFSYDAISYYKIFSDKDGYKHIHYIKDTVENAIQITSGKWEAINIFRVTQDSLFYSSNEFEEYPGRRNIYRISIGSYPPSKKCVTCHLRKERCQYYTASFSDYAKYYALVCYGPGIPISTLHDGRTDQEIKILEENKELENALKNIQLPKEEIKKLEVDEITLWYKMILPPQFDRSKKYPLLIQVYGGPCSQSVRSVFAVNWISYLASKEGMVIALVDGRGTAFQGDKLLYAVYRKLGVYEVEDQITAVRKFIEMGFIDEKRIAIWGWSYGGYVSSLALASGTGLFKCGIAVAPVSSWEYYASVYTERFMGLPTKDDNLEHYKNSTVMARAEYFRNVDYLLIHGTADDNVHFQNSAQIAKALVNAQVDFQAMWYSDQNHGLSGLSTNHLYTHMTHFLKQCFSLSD
Outline: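 Recombinant human FAP, 10 ng per reaction, in 50 mM Tris pH 7.5 with 1 M NaCl and 1 mg/ml BSA at 25° C; substrate Z-Gly-Pro-AMC, ≤0.1% DMSO. AMC fluorescence read at ex 380/em 460 nm; % signal-rate decrease vs no-inhibitor control, 8-point curves fitted to a four-parameter logistic for IC50.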

[3] = target: T3, recombinant human DPP7 (Homo sapiens, UniProt Q9UHL4); test: DPP7 inhibition, fluorogenic substrate Lys-Pro-AMC; details: recombinant human DPP7
T3 construct: purchased R&D Systems
Outline: as §1

[4] = target: T4, recombinant human DPP9 (Homo sapiens, UniProt Q86TI2); test: DPP9 inhibition, fluorogenic substrate H-Gly-Pro-AMC; details: recombinant human DPP9
T4 construct: purchased R&D Systems
Outline: as §1

[5] = target: T5, recombinant human PREP (Homo sapiens, UniProt P48147); test: PREP inhibition, fluorogenic substrate Z-Gly-Pro-AMC; details: Inhibitory Activity (IC50, nM) PREP, recombinant human PREP
T5 construct: purchased R&D System
T5 sequence (P48147 1-710): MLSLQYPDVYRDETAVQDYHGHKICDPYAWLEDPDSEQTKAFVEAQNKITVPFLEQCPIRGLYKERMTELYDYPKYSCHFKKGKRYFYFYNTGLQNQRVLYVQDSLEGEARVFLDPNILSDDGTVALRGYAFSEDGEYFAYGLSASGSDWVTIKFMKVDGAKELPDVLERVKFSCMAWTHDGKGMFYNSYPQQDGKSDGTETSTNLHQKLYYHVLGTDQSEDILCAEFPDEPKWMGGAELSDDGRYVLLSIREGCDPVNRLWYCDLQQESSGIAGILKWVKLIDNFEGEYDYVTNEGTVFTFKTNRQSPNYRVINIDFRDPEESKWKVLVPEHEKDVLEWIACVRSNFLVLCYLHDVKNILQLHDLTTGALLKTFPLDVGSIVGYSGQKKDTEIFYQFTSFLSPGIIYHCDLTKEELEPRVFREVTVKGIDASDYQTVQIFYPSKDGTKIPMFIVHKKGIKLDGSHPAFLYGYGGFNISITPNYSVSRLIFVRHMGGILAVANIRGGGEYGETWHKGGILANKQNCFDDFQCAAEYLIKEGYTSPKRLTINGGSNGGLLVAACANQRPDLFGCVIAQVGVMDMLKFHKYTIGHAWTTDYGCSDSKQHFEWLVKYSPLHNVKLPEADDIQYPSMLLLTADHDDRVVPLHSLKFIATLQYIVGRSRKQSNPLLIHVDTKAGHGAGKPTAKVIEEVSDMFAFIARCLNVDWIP
Outline: as §1

[6] = target: DPP4 (Homo sapiens, UniProt P27487); test: DPP4 inhibition, fluorogenic substrate H-Gly-Pro-AMC; parameters: purchased R&D Systems; details: recombinant human DPP4
DPP4, sequence (P27487 whole entry): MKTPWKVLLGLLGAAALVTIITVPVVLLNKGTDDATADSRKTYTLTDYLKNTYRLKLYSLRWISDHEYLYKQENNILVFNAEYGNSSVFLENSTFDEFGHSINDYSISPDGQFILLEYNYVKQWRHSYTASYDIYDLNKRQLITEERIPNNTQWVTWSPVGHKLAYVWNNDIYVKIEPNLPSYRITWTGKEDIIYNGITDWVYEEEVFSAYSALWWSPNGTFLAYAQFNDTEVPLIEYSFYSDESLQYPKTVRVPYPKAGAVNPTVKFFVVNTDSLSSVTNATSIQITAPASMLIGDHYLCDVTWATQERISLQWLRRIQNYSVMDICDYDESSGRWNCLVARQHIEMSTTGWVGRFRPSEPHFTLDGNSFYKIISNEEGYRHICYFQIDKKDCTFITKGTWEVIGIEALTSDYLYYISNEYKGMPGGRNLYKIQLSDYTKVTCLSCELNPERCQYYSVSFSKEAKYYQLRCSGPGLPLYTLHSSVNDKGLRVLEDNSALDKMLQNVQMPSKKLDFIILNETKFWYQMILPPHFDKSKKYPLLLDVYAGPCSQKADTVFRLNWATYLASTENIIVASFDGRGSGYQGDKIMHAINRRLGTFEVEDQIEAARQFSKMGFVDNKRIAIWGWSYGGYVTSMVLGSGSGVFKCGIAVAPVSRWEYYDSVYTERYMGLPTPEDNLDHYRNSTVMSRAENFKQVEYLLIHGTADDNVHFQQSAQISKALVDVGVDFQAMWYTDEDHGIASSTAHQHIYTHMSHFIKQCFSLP

T1 sequence (Q6V1X1 whole entry): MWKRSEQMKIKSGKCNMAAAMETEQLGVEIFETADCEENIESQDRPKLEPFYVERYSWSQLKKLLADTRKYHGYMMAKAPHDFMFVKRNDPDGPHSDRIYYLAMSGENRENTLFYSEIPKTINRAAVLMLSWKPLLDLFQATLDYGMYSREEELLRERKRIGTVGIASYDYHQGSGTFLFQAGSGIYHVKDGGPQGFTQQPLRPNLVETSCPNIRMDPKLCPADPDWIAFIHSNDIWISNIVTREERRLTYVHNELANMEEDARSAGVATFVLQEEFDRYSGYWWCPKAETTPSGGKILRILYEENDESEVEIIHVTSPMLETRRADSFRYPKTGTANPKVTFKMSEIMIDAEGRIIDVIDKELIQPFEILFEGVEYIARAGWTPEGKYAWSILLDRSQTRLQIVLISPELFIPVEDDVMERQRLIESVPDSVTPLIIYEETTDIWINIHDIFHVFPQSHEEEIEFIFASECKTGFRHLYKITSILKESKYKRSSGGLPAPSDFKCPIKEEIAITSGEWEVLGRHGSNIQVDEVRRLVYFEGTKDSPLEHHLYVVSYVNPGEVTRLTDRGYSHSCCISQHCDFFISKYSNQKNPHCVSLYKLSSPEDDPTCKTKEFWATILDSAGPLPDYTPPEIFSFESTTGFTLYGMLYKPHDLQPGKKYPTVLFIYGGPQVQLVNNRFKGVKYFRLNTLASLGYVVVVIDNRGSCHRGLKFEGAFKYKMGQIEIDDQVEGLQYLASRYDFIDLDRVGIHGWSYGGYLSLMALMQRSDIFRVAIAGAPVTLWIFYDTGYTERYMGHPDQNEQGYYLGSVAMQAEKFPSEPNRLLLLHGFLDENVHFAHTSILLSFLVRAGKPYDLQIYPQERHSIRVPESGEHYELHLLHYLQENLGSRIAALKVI
T4 sequence (Q86TI2 whole entry): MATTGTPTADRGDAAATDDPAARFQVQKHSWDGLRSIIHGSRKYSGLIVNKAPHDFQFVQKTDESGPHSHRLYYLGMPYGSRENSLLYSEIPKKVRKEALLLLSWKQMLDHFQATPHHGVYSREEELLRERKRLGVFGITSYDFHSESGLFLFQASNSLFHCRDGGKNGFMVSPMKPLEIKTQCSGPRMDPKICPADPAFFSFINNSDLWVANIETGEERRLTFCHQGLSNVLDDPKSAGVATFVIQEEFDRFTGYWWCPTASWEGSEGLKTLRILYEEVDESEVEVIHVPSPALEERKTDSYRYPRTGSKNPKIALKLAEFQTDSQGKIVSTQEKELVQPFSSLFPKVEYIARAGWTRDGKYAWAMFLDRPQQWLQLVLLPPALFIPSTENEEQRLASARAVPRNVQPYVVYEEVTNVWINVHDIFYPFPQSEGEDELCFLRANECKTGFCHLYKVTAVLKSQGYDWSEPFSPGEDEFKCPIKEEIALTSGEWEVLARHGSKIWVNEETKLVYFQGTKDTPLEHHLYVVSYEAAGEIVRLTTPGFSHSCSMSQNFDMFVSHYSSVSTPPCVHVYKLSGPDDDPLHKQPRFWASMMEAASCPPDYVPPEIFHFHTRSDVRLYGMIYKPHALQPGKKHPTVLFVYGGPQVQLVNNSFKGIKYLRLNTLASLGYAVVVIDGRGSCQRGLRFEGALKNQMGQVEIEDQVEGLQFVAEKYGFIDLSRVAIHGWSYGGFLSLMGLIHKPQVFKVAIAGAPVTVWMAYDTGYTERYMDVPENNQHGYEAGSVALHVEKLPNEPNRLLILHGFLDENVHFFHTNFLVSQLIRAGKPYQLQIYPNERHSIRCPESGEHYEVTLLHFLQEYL

| IC50 [1] [µM] | IC50 [2] [µM] | IC50 [3] [µM] | IC50 [4] [µM] | IC50 [5] [nM] | IC50 [6] [µM] | Structure (SMILES) |
| --- | --- | --- | --- | --- | --- | --- |
| > 10 | 0.0045 | 1.06 | 2.88 | 3570 | 5.89 | N#C[C@@H]1C[C@H](F)CN1C(=O)CN1CCC(Nc2ccc(Cl)c3cnccc23)CC1 [Example 353, (2S,4S)-1-[2-[4-[(8-chloro-5-isoquinolyl)amino]-1-piperidyl]acetyl]-4-fluoro-pyrrolidine-2-carbonitrile] |
| 1.78 | 0.0089 | 0.428 | 4.94 | 2820 | 2.08 | Cc1cncc2cccc(NC3CCN(CC(=O)N4C[C@@H](F)C[C@H]4C#N)CC3)c12 [Example 354, (2S,4S)-4-fluoro-1-[2-[4-[(4-methyl-5-isoquinolyl)amino]-1-piperidyl]acetyl]pyrrolidine-2-carbonitrile] |
| 3.6 | 0.0038 | 1.64 | 2.8 | 4830 | 4.71 | N#C[C@@H]1C[C@H](F)CN1C(=O)CN1CCC(Nc2ccc(F)c3cnccc23)CC1 [Example 357, (2S,4S)-4-fluoro-1-[2-[4-[(8-fluoro-5-isoquinolyl)amino]-1-piperidyl]acetyl]pyrrolidine-2-carbonitrile] |
| 30 | 0.0037 | 1.44 | 64.6 | 11800 | > 10 | COc1cc2nc(Cl)nc(NC3CCN(CC(=O)N4CCC[C@H]4C#N)CC3)c2cc1OC [Example 358, (2S)-1-[2-[4-[(2-chloro-6,7-dimethoxy-quinazolin-4-yl)amino]-1-piperidyl]acetyl]pyrrolidine-2-carbonitrile] |
| 8.22 | 0.0023 | 0.971 | 31.3 | 6000 | > 10 | Cc1cccc2c(NC3CCN(CC(=O)N4CCC[C@H]4C#N)CC3)nc(Cl)nc12 [Example 359, (2S)-1-[2-[4-[(2-chloro-8-methyl-quinazolin-4-yl)amino]-1-piperidyl]acetyl]pyrrolidine-2-carbonitrile] |
| 9.92 | 0.0025 | 3.15 | 29.4 | 10600 | > 10 | N#C[C@@H]1C[C@H](F)CN1C(=O)CN1CCC(Oc2ccnc3ccc(C(F)(F)F)cc23)CC1 [Example 411, (2S,4S)-4-fluoro-1-[2-[4-[[6-(trifluoromethyl)-4-quinolyl]oxy]-1-piperidyl]acetyl]pyrrolidine-2-carbonitrile] |
| 12 | 0.0059 | 10.7 | 69.8 | 1280 | > 10 | N#C[C@@H]1C[C@H](F)CN1C(=O)CN1CCC(Oc2cc(C(F)(F)F)nc3ccccc23)CC1 [Example 412, (2S,4S)-4-fluoro-1-[2-[4-[[2-(trifluoromethyl)-4-quinolyl]oxy]-1-piperidyl]acetyl]pyrrolidine-2-carbonitrile] |
| 18.2 | 0.003 | > 100 | > 100 | 26500 | > 10 | N#C[C@@H]1C[C@H](F)CN1C(=O)CN1CCC(Oc2cc(C(F)(F)F)nc3ccc(F)cc23)CC1 [Example 413, (2S,4S)-4-fluoro-1-[2-[4-[[6-fluoro-2-(trifluoromethyl)-4-quinolyl]oxy]-1-piperidyl]acetyl]pyrrolidine-2-carbonitrile] |
| 44 | 0.0043 | 8.74 | > 100 | 57500 | > 10 | COc1ccc2nc(C(F)(F)F)cc(OC3CCN(CC(=O)N4C[C@@H](F)C[C@H]4C#N)CC3)c2c1 [Example 414, (2S,4S)-4-fluoro-1-[2-[4-[[6-methoxy-2-(trifluoromethyl)-4-quinolyl]oxy]-1-piperidyl]acetyl]pyrrolidine-2-carbonitrile] |
| 16.5 | 0.0064 | 13.5 | 39.4 | 1410 | > 10 | COc1cccc2c(OC3CCN(CC(=O)N4C[C@@H](F)C[C@H]4C#N)CC3)cc(C(F)(F)F)nc12 [Example 415, (2S,4S)-4-fluoro-1-[2-[4-[[8-methoxy-2-(trifluoromethyl)-4-quinolyl]oxy]-1-piperidyl]acetyl]pyrrolidine-2-carbonitrile] |
| 9.39 | 0.0081 | 2.02 | 23 | 1100 | > 10 | N#C[C@@H]1C[C@H](F)CN1C(=O)CN1CCC(Oc2nccc3ccccc23)CC1 [Example 419, (2S,4S)-4-fluoro-1-[2-[4-(1-isoquinolyloxy)-1-piperidyl]acetyl]pyrrolidine-2-carbonitrile] |
| 8.59 | 0.007 | 2.08 | 22.1 | 1740 | > 10 | N#C[C@@H]1C[C@H](F)CN1C(=O)CN1CCC(Oc2cncc3ccccc23)CC1 [Example 420, (2S,4S)-4-fluoro-1-[2-[4-(4-isoquinolyloxy)-1-piperidyl]acetyl]pyrrolidine-2-carbonitrile] |
| 1.58 | 0.0025 | > 100 | 4.16 | 2610 | 7.53 | N#C[C@@H]1C[C@H](F)CN1C(=O)CN1CCC(Oc2cccc3cnccc23)CC1 [Example 421, (2S,4S)-4-fluoro-1-[2-[4-(5-isoquinolyloxy)-1-piperidyl]acetyl]pyrrolidine-2-carbonitrile] |
| 6.42 | 0.0114 | 1.22 | 10.3 | 1410 | > 10 | N#C[C@@H]1C[C@H](F)CN1C(=O)CN1CCC(Oc2ccc3cnccc3c2)CC1 [Example 422, (2S,4S)-4-fluoro-1-[2-[4-(6-isoquinolyloxy)-1-piperidyl]acetyl]pyrrolidine-2-carbonitrile] |
| 3.46 | 0.0093 | 2.05 | 9.33 | 990 | 8.99 | N#C[C@@H]1C[C@H](F)CN1C(=O)CN1CCC(Oc2ccc3ccncc3c2)CC1 [Example 423, (2S,4S)-4-fluoro-1-[2-[4-(7-isoquinolyloxy)-1-piperidyl]acetyl]pyrrolidine-2-carbonitrile] |

| Structure (SMILES) | IC50 [1] [µM] | IC50 [2] [µM] | IC50 [3] [µM] | IC50 [4] [µM] | IC50 [5] [nM] | IC50 [6] [µM] |
| --- | --- | --- | --- | --- | --- | --- |
| N#C[C@@H]1C[C@H](F)CN1C(=O)CN1CCC(Nc2ccc([N+](=O)[O-])c3cnccc23)CC1 [Example 356, (2S,4S)-4-fluoro-1-[2-[4-[(8-nitro-5-isoquinolyl)amino]-1-piperidyl]acetyl]pyrrolidine-2-carbonitrile] | 0.953 | 0.0037 | 2.05 | 0.741 | 4980 | 4.02 |
